# Results reported in patent US10344330B2, “Glatiramer acetate response biomarker mRNA potency assay” (Mylan Inc., priority 2013, dated 2019).
# How the values were obtained:
# [1] = test system: IL-12 (total) secreted by LN cells; experiment: IL-12 (total) secretion by GA-stimulated LN cells, MSD 9-plex ELISA (Example II); format: cell-based, mouse; settings: for IL-12 (total) secretion response ratio (treated cell medium to control DCCM1 medium): 21 hr
# Description: Animals at 8 weeks of age were immunized by injection into four footpads using a 1 mL syringe with a 27-G, 1⁄2-inch needle. […] Ten days post-immunization, immunized animals were sacrificed via cervical dislocation. […] The LN cells were isolated by pressing the LN with the plunger end of a sterile syringe. […] Trypan blue exclusion method was used to determine the cell density of viable cells in the suspension. […] Cat. […] LN cells were plated into a 24-well tissue culture plate for drug stimulation. […] Cell debris was removed by centrifugation at ca. 200×g for 10 minutes at 4° C. Cytokines secreted by treated cells were determined on the day of collection by ELISA using mouse TH 1/TH 2 9-Plex Tissue Culture Kit (Meso Scale Discovery; Cat No. […]-2, Lot #: K0032839) which detects Th1 cytokines (IFN-γ, IL-2, IL-12, IL-1β, TNF-α, CXCL1) and Th2 cytokines (IL-4, IL-5 and IL-10). For IFN-γ, culture media also were assayed at 45 hours using mouse IFN-γ Tissue Culture Kit (Meso Scale Discovery; Cat No. […] For the positive control, 0.5 mL of LN cells (5×10^6 cells/well) were treated with 0.5 mL of ConA (5 μg/mL). For the negative control, 0.5 mL of LN cells (5×10^6 cells/well) were treated with 0.5 mL of MBP (20 μg/mL). The LN cells with mock stimulation (enriched DCCM1 medium) were used to monitor the background level of a cytokine. For the cytokine assays, calibration standards or samples were incubated in the MULTI-SPOT or the SINGLE-SPOT plate and each cytokine bound to its corresponding capture antibody. All test samples were run in duplicate. The amount of each cytokine on its distinct spot was quantified using a cytokine-specific detection antibody labeled with MSD SULFO-TAGTM reagent. Electrochemiluminescent signals from immobilized SULFO-TAGTM-labeled complexes on each spot from each well were captured by the MSD SECTOR Imager 6000, which produces a signal directly proportional to the amount of captured cytokine in a test sample. The levels of cytokines in test samples were derived by interpolation from calibration curves with calibration standards of known concentrations using reagents provided with the MSD kits. Kits were used according to the manufacturer's protocols. […] Data are expressed as a response ratio of cytokine concentration in treated cell medium to control DCCM1 medium.
# [2] = test system: mouse IL-13 mRNA in primary LN cells; experiment: Mouse IL-13 mRNA in LN cells of immunized SJL/J mice stimulated with Copaxone and GMA lots, normalized to Actβ or GAPDH (Example V); format: cell-based; settings: for 1L-13 mRNA Fold Change / IL-13 mRNA Fold Change: 2.5 μg/mL; for 1L-13 mRNA Fold Change: normalized to Actβ; for IL-13 mRNA Fold Change: normalized to GAPDH
# Description: (§1) A real-time polymerase chain reaction method was used to measure the expression of cytokine mRNA in GA-stimulated LN cells from GA-immunized SJL/J mice. Normalization of expression with two different housekeeping genes, GAPDH and β-actin, was tested.
# (§2) Each group consisted of six female SJL/J mice immunized by injection in all four footpads with a total dose of 250 μg of one lot of GA, or mannitol and no GA. Three Copaxone batches and three GMA batches were used to immunize the mice. CFA was included in both GA and mannitol immunizations. Ten days following immunization, LN cell samples isolated from the immunized mice were each stimulated with a concentration of a Copaxone lot and a GMA lot. A positive control of 2.5 μg/mL ConA treated LN cells and a negative control of 10 μg/mL MBP treated cells were included in each group.
# (§3) Therefore, the Q-PCR analysis was repeated on the samples, measuring levels of IL-2, IL-4, IL-5, and IL-13, using both GAPDH and β-actin as reference gene.
# [3] = test system: IL-1b secreted by LN cells; experiment: IL-1b secretion by GA-stimulated LN cells, MSD 9-plex ELISA (Example II); format: cell-based, mouse; settings: for IL-1b secretion response ratio (treated cell medium to control DCCM1 medium): 21 hr
# [4] = test system: mIL-4 mRNA in primary LN cells; experiment: mIL-4 mRNA by real-time PCR in stimulated LN cells of immunized (SJL/J×BALB/C)F1 mice (Example I); format: cell-based, mouse; settings: for mIL-4 mRNA Level: Experiment 1, GA-immunized (SJL/J×BALB/C)F1; for mIL-4 mRNA: reference 18S rRNA
# Description: For each of the three experiments summarized in Table 1, female (SJL/J×BALB/C) F1 hybrid (Jackson Laboratory) mice were immunized by footpad injection with either 250 μg GMA (Mylan Pharmaceuticals, Inc.) and CFA (Sigma Aldrich), or Mannitol and CFA (as a negative control). The GA solution was diluted to 5 mg/mL with Dulbecco's Phosphate-buffered saline. A dose solution was then prepared by mixing the diluted GA solution (5 mg/mL) and CFA (1:1) until well-emulsified. Each mouse received a total injection volume of 0.1 mL (250 μg GA). Animals were immunized on Day 0. Immunized animals were sacrificed via cervical dislocation on Day 10 following immunization. […] The LN were washed 3 times with −5 mL of RPMI medium, and the LN cells isolated by pressing the LN with a syringe plunger. […] The cell suspension was centrifuged at about 200×g for 10 minutes at about 4° C. and re-suspended in ice cold enriched DCCM-1 medium. The LN cells (2.5×10^6 cells/cm^2) were plated in the wells of a 48-well tissue culture plate and stimulated with GA or controls.
# Expression of cytokine mRNA was quantitatively analyzed using a Real-Time PCR system (7500, Applied Biosystems).
# (DCCM1 from Beit Haemek Ltd.; Cat. No. 05 010 1A). There was no MBP treatment for the 2-hour groups.
# Group 1B animals were female (SJL/J×BALB/C) F1 hybrid (Jackson Laboratory) mice immunized by footpad injection with either 250 μg GA and CFA, or Mannitol and CFA (as a negative control). A dose solution was prepared by mixing a diluted GA solution (5 mg/mL) and CFA (1:1). Each mouse received a total injection volume of […] (250 μg GA). Animals were immunized on Day 0. Immunized animals were sacrificed via cervical dislocation on Day 10 following immunization. Lymph nodes from immunized mice were removed and isolated. LN cells (2.5×10^6 cells/cm^2) were plated in the wells of a 48-well tissue culture plate for stimulation with GA.
# Expression of cytokine mRNA was quantitatively analyzed 4 and 6 hours after using a Real-Time PCR system (7500, Applied Biosystems).
# [5] = test system: mouse IL-2 mRNA in primary LN cells; experiment: Mouse IL-2 mRNA in LN cells of Copaxone-, GMA- or mannitol-immunized SJL/J mice stimulated with Copaxone and GMA lots, normalized to Actβ or GAPDH (Example V); format: cell-based; settings: for IL-2 mRNA Fold Change: 2.5 μg/mL
# Description: as §1, §2, §3
# [6] = BALB/cByJ, immunized GA Intraplantar
# [7] = BALB/cByJ, immunized GA Lower Limb
# [8] = C57BL10J, immunized GA Lower Limb
# [9] = 2 hour post stimulation, GA 10, ConA 2.5 μg/mL
# [10] = 4 hour post stimulation, GA 10, MBP 10, ConA 2.5 μg/mL
# [11] = 6 hour post stimulation, GA 10, MBP 10, ConA 2.5 μg/mL
# [12] = 24 hour post stimulation, GA 10, MBP 10, ConA 2.5 μg/mL
# [13] = Group 1B (GA + CFA), 4 hours post-stimulation, GA 10, MBP 10, ConA 2.5 μg/mL
# [14] = Group 1B (GA + CFA), 6 hours post-stimulation, GA 10, MBP 10, ConA 2.5 μg/mL
# [15] = Group 2B (Mannitol + CFA), 4 hours post-stimulation, GA 10, MBP 10, ConA 2.5 μg/mL
# [16] = Group 2B (Mannitol + CFA), 6 hours post-stimulation, GA 10, MBP 10, ConA 2.5 μg/mL
# [17] = Copaxone: C/A, GMA: B/D, 5 μg/mL
substance,measurement,setting,value
"Concanavalin A [ConA, reference compound]",IL-12 (total) secretion response ratio (treated cell medium to control DCCM1 medium),[1]; [6],1.66
same,IL-12 (total) secretion response ratio (treated cell medium to control DCCM1 medium),[1]; [7],1.10
same,IL-12 (total) secretion response ratio (treated cell medium to control DCCM1 medium),"[1]; BALB/cByJ, immunized Mannitol Intraplantar",1.44
same,IL-12 (total) secretion response ratio (treated cell medium to control DCCM1 medium),"[1]; C57BL10J, immunized GA Intraplantar",1.88
same,IL-12 (total) secretion response ratio (treated cell medium to control DCCM1 medium),[1]; [8],1.01
same,IL-12 (total) secretion response ratio (treated cell medium to control DCCM1 medium),"[1]; C57BL10J, immunized Mannitol Intraplantar",0.92
same,IL-12 (total) secretion response ratio (treated cell medium to control DCCM1 medium),"[1]; CD-1, immunized GA Intraplantar",1.09
same,IL-12 (total) secretion response ratio (treated cell medium to control DCCM1 medium),"[1]; CD-1, immunized GA Lower Limb",1.91
same,IL-12 (total) secretion response ratio (treated cell medium to control DCCM1 medium),"[1]; CD-1, immunized Mannitol Intraplantar",1.80
same,1L-13 mRNA Fold Change,[2]; Group ID 3,15.6 fold
same,IL-13 mRNA Fold Change,[2]; Group ID 3,27.4 fold
same,1L-13 mRNA Fold Change,[2]; Group ID 4,20.4 fold
same,IL-13 mRNA Fold Change,[2]; Group ID 4,34.8 fold
same,IL-1b secretion response ratio (treated cell medium to control DCCM1 medium),[3]; [6],11.73
same,IL-1b secretion response ratio (treated cell medium to control DCCM1 medium),[3]; [7],8.70
same,IL-1b secretion response ratio (treated cell medium to control DCCM1 medium),[3]; [8],1.42
same,IL-1b secretion response ratio (treated cell medium to control DCCM1 medium),"[3]; CD-1, immunized GA Lower Limb",2.86
same,mIL-4 mRNA Level,[4]; [9],35.7 fold change vs control
same,mIL-4 mRNA Level,[4]; [10],47.6 fold change vs control
same,mIL-4 mRNA Level,[4]; [11],52.2 fold change vs control
same,mIL-4 mRNA Level,[4]; [12],6.1 fold change vs control
same,mIL-4 mRNA,[4]; [13],27.1 fold change vs control
same,mIL-4 mRNA,[4]; [14],12.8 fold change vs control
same,mIL-4 mRNA,[4]; [15],37.3 fold change vs control
same,mIL-4 mRNA,[4]; [16],56.2 fold change vs control
same,IL-2 mRNA Fold Change,"[5]; Group 3 (mice immunized with GA-M2 Mylan GMA), normalized to Actβ",123.4 fold
same,IL-2 mRNA Fold Change,"[5]; Group 3 (mice immunized with GA-M2 Mylan GMA), normalized to GAPDH",149.4 fold
same,IL-2 mRNA Fold Change,"[5]; Group 4 (mice immunized with GA-C2 Copaxone), normalized to Actβ",105.0 fold
same,IL-2 mRNA Fold Change,"[5]; Group 4 (mice immunized with GA-C2 Copaxone), normalized to GAPDH",84.8 fold
"L-glutamic acid polymer with L-alanine, L-lysine and L-tyrosine, acetate (salt) [GA]","IL-12 secretion, dose response to GA (in words)",[1]; cells from any of the three mouse strains,No dose response
same,IL-13 cross-potency,[2]; [17],74.8%
same,"IL-1β secretion, dose response to GA (in words)","[3]; BALB/cByJ and CD-1, primed by intraplantar injection",Dose response of IL-1β was detected
same,mIL-4 mRNA Level,[4]; [9],10.0 fold change vs control
same,mIL-4 mRNA Level,[4]; [10],10.0 fold change vs control
same,mIL-4 mRNA Level,[4]; [11],16.5 fold change vs control
same,mIL-4 mRNA Level,[4]; [12],14.1 fold change vs control
same,mIL-4 mRNA,[4]; [13],8.2 fold change vs control
same,mIL-4 mRNA,[4]; [14],9.2 fold change vs control
same,mIL-4 mRNA level increase vs DCCM-1-stimulated control,"[4]; Group 1B, 4 and 6 hours (summary of Table 9)",at least 8 fold
same,mIL-4 mRNA,[4]; [15],2.2 fold change vs control
same,mIL-4 mRNA,[4]; [16],1.1 fold change vs control
same,IL-2 cross-potency,[5]; [17],108%
